Each structure is given as a SMILES string. Values joined by “and” are separate entries in the source; they are usually repeats but may differ in a detail not shown here. Equal values may be shown once. Toxic doses and inconclusive results are not listed.

The assay relates to L1210 leukemia ip in BDF1 mice, survival T/C. In words: NCI In Vivo Anticancer Drug Screen. Data for tumor model L1210 Leukemia (intraperitoneal) in B6D2F1 (BDF1) mice. The settings on record: endpoint: mean survival time, higher = longer survival. In outline:
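Each compound was tested against a transplantable tumor grown in mice. The endpoint was survival, with treated animals benchmarked against vehicle controls as a simple ratio.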

Where [1] appears, read: dose: 100.0 mg/kg/injection, schedule: Q01DX001 (ip), vehicle: steriod suspending solution.
Setting [2] is: dose: 200.0 mg/kg/injection, schedule: Q01DX001 (ip), vehicle: steriod suspending solution.
The mark [3] stands for this setting: dose: 400.0 mg/kg/injection, schedule: Q01DX001 (ip), vehicle: steriod suspending solution.
[4] abbreviates: dose: 100.0 mg/kg/injection, schedule: Q01DX001 (ip), vehicle: saline.
[5] abbreviates: dose: 200.0 mg/kg/injection, schedule: Q01DX001 (ip), vehicle: saline.
Setting [6] is: dose: 400.0 mg/kg/injection, schedule: Q01DX001 (ip), vehicle: saline.
Where [7] appears, read: dose: 100.0 mg/kg/injection, schedule: Q04DX003 (ip), vehicle: Klucel (hydroxypropylcellulose) (HPC).
Where [8] appears, read: dose: 200.0 mg/kg/injection, schedule: Q04DX003 (ip), vehicle: Klucel (hydroxypropylcellulose) (HPC).
[9] abbreviates: dose: 100.0 mg/kg/injection, schedule: Q01DX009 (ip), vehicle: Klucel (hydroxypropylcellulose) (HPC).
[10] abbreviates: dose: 200.0 mg/kg/injection, schedule: Q01DX009 (ip), vehicle: Klucel (hydroxypropylcellulose) (HPC).

With `O=C(CN1CC1)NCCCCCCCCNC(=O)CN1CC1`, the T/C by setting is: (dose: 4.4 mg/kg/injection, schedule: Q01DX001 (ip), vehicle: carboxymethylcellulose (CMC)) 108 % of control; (dose: 6.6 mg/kg/injection, schedule: Q01DX001 (ip), vehicle: carboxymethylcellulose (CMC)) 115 % of control; (dose: 7.0 mg/kg/injection, schedule: Q01DX009 (ip), vehicle: carboxymethylcellulose (CMC)) 97 % of control; (dose: 10.0 mg/kg/injection, schedule: Q01DX001 (ip), vehicle: carboxymethylcellulose (CMC)) 117 % of control; (dose: 11.0 mg/kg/injection, schedule: Q01DX009 (ip), vehicle: carboxymethylcellulose (CMC)) 112 % of control; (dose: 15.0 mg/kg/injection, schedule: Q01DX001 (ip), vehicle: carboxymethylcellulose (CMC)) 117 % of control. Also, the T/C was 118 % of control (dose: 25.0 mg/kg/injection, schedule: Q01DX009 (ip), vehicle: carboxymethylcellulose (CMC)); 183 % of control (dose: 33.0 mg/kg/injection, schedule: Q01DX009 (ip), vehicle: carboxymethylcellulose (CMC)); 154 % of control (dose: 40.0 mg/kg/injection, schedule: Q04DX003 (ip), vehicle: Klucel (hydroxypropylcellulose) (HPC)); 152 % of control (dose: 50.0 mg/kg/injection, schedule: Q01DX001 (ip), vehicle: carboxymethylcellulose (CMC)); 104 % of control (dose: 50.0 mg/kg/injection, schedule: Q01DX009 (ip), vehicle: carboxymethylcellulose (CMC)); 173 % of control (dose: 60.0 mg/kg/injection, schedule: Q04DX003 (ip), vehicle: Klucel (hydroxypropylcellulose) (HPC)). Further, the T/C (dose: 90.0 mg/kg/injection, schedule: Q04DX003 (ip), vehicle: Klucel (hydroxypropylcellulose) (HPC)) was 97 % of control.

Consider `Nc1ncc(C=O)c(N)n1`, for which the T/C reads like this: (dose: 6.25 mg/kg/injection, schedule: Q01DX009 (ip), vehicle: Klucel (hydroxypropylcellulose) (HPC)) 113 % of control; (dose: 12.5 mg/kg/injection, schedule: Q01DX009 (ip), vehicle: Klucel (hydroxypropylcellulose) (HPC)) 100 % of control.

Consider `CCN(CC)C(=S)[S][Pb]([S]C(=S)N(CC)CC)([c]1ccccc1)[c]1ccccc1`, for which the T/C is 97 % of control under setting [1], 98 % of control under setting [2] and 100 % of control under setting [3].

As for `NCCN(CCN)CCN`, the T/C (dose: 50.0 mg/kg/injection, schedule: Q01DX001 (ip), vehicle: saline) is 108 % of control; the T/C under setting [4] was 96 % of control; the T/C under setting [5] was 96 % of control; the T/C under setting [6] was 124 % of control.

As for `O=C1CC(Nc2ccc(F)cc2)C(=O)N1c1ccc(F)cc1` (stereo not given), the T/C is 90 % of control (dose: 75.0 mg/kg/injection, schedule: Q04DX003 (ip), vehicle: other); 92 % of control (dose: 150.0 mg/kg/injection, schedule: Q04DX003 (ip), vehicle: other); 90 % of control (dose: 300.0 mg/kg/injection, schedule: Q04DX003 (ip), vehicle: other).

With `Nc1nc(N)c2c(n1)Nc1ccc(Cl)nc1S2`, the T/C reads like this: (dose: 75.0 mg/kg/injection, schedule: Q01DX009 (ip), vehicle: Klucel (hydroxypropylcellulose) (HPC)) 93 % of control; (dose: 150.0 mg/kg/injection, schedule: Q01DX009 (ip), vehicle: Klucel (hydroxypropylcellulose) (HPC)) 95 % of control.

In the case of `O=[N+]([O-])c1cccc(S(=O)(=O)NNc2c(Cl)cc(Cl)cc2Cl)c1`, the T/C is, setting by setting: under setting [7], 94 % of control; under setting [8], 93 % of control; (dose: 400.0 mg/kg/injection, schedule: Q04DX003 (ip), vehicle: Klucel (hydroxypropylcellulose) (HPC)) 96 % of control.

Consider `O=Cc1cc2c(cc1Cl)OCO2`, for which the T/C (dose: 100.0 mg/kg/injection, schedule: Q04DX003 (ip), vehicle: saline with Tween-80) is 92 % of control; the T/C (dose: 200.0 mg/kg/injection, schedule: Q04DX003 (ip), vehicle: saline with Tween-80) is 86 % of control; the T/C (dose: 400.0 mg/kg/injection, schedule: Q04DX003 (ip), vehicle: saline with Tween-80) was 97 % of control.

On to `CC(C)(C)SC(C)(C)C`, for which the T/C reads like this: (dose: 100.0 mg/kg/injection, schedule: Q01DX009 (ip), vehicle: saline with Tween-80) 96 % of control; (dose: 200.0 mg/kg/injection, schedule: Q01DX009 (ip), vehicle: saline with Tween-80) 96 % of control; (dose: 400.0 mg/kg/injection, schedule: Q01DX009 (ip), vehicle: saline with Tween-80) 96 % of control.

With `CCCCCCCC[n+]1ccc(C#N)cc1`, the T/C is 97 % of control (dose: 18.8 mg/kg/injection, schedule: Q04DX003 (ip), vehicle: saline); 100 % of control (dose: 37.5 mg/kg/injection, schedule: Q04DX003 (ip), vehicle: saline); 96 % of control (dose: 75.0 mg/kg/injection, schedule: Q01DX001 (ip), vehicle: saline); 100 % of control (dose: 75.0 mg/kg/injection, schedule: Q04DX003 (ip), vehicle: saline).

Regarding `Cn1c(O)c(N=Nc2ccccc2[N+](=O)[O-])c2ccccc21`, the T/C was 95 % of control (dose: 100.0 mg/kg/injection, schedule: Q01DX001 (ip), vehicle: other); 90 % of control (dose: 200.0 mg/kg/injection, schedule: Q01DX001 (ip), vehicle: other); 95 % of control (dose: 400.0 mg/kg/injection, schedule: Q01DX001 (ip), vehicle: other).

As to `Cc1ccc([N+](=O)[O-])cc1NC(=O)Nc1ccccc1F`, the T/C runs as follows: under setting [9], 89 % of control; under setting [10], 92 % of control; (dose: 400.0 mg/kg/injection, schedule: Q01DX009 (ip), vehicle: Klucel (hydroxypropylcellulose) (HPC)) 87 % of control.

Regarding `Cc1coc(NS(=O)(=O)c2ccc(N=Nc3c(N)nc(N)[nH]c3=O)cc2)c1C`, the T/C is 109 % of control under setting [4], 102 % of control under setting [5] and 105 % of control under setting [6].

For the compound `CCOC(=O)/C(C#N)=C\c1ccccc1Cl`, the T/C reads like this: (dose: 50.0 mg/kg/injection, schedule: Q01DX009 (ip), vehicle: Klucel (hydroxypropylcellulose) (HPC)) 98 % of control; under setting [9], 95 % of control; under setting [7], 91 % of control; under setting [10], 100 % of control; under setting [8], 99 % of control.

As for `CC(=O)OC1C=CC(=O)OC1C1OC1C` (stereo not given), the T/C is, setting by setting: (dose: 4.0 mg/kg/injection, schedule: Q01DX Z (ip), vehicle: saline) 100 % of control; (dose: 6.0 mg/kg/injection, schedule: Q01DX Z (ip), vehicle: saline) 111 % of control; (dose: 9.0 mg/kg/injection, schedule: Q01DX Z (ip), vehicle: saline) 110 % of control; (dose: 13.0 mg/kg/injection, schedule: Q01DX Z (ip), vehicle: saline) 100 % of control and 108 % of control; (dose: 19.0 mg/kg/injection, schedule: Q01DX Z (ip), vehicle: saline) 103 % of control; (dose: 29.0 mg/kg/injection, schedule: Q01DX Z (ip), vehicle: saline) 103 % of control.

Regarding `COC(=O)c1cccc2c1-c1ccccc1C(Br)C2Br` (stereo not given), the T/C by setting is: under setting [4], 111 % of control; (dose: 100.0 mg/kg/injection, schedule: Q04DX003 (ip), vehicle: saline) 96 % of control; under setting [5], 95 % of control; (dose: 200.0 mg/kg/injection, schedule: Q04DX003 (ip), vehicle: saline) 92 % of control; under setting [6], 97 % of control; (dose: 400.0 mg/kg/injection, schedule: Q04DX003 (ip), vehicle: saline) 94 % of control.

`O=C(Nc1ccccc1)c1nccc2ccccc12`: the T/C was 117 % of control under setting [1], 109 % of control under setting [2] and 108 % of control under setting [3].

Regarding `O=Cc1cccc(Oc2cccc(C=O)c2)c1`, the T/C (dose: 100.0 mg/kg/injection, schedule: Q01DX001 (ip), vehicle: Klucel (hydroxypropylcellulose) (HPC)) is 97 % of control; the T/C (dose: 200.0 mg/kg/injection, schedule: Q01DX001 (ip), vehicle: Klucel (hydroxypropylcellulose) (HPC)) was 95 % of control; the T/C (dose: 400.0 mg/kg/injection, schedule: Q01DX001 (ip), vehicle: Klucel (hydroxypropylcellulose) (HPC)) was 92 % of control.

Take `CCCCCCCCCCOc1ccc(OC)cc1`: the T/C is, setting by setting: (dose: 100.0 mg/kg/injection, schedule: Q04DX002 (ip), vehicle: other) 103 % of control; (dose: 200.0 mg/kg/injection, schedule: Q04DX002 (ip), vehicle: other) 95 % of control; (dose: 400.0 mg/kg/injection, schedule: Q04DX002 (ip), vehicle: other) 106 % of control.

The record behind these values is PubChem BioAssay AID248 (DTP/NCI, 2004).
